Like-named read-outs stand apart in the source and are kept apart here. Where a SMILES comes first, the peptide text is derived from it.
Experiments:
[1] = system: third instar H. zea larvae
Experimental: Peptide of the Formula I, wherein X is Asp and Y is Leu(NH2) was dissolved in sucrose phosphate buffer and serially diluted to obtain 0.1, 1.0, 10, 100, and 1000 pmoles/5 μL of buffer. The peptide was then injected into third instar H. zea larvae the day before their moult to fourth instar. Observations for melanization (intense black color formation) were recorded after 48 hr.

[2] = system: ligated females of six other species of moths
Experimental: (§1) Bioassay procedure is described in Example 6. Each female was injected
(§2) of the synthetic peptide in 10 microliter of buffer. The major component

ligated H. zea females = experiment: Pheromone production bioassay: injection into ligated H. zea females; format: in vivo, Heliothis zea; conditions: for ng/Female H. zea (Z)-11-Hexadecenal: injected into ligated females
[3] = system: D. nitidalis (pickle worm); conditions: (E)-11-hexadecenal per female ± SE, N = 5; 5 pmoles injected
Experimental: as §1, §2
(§3) Dose response of the peptide of Formula I, wherein X is Asp and Y is Leu(NH2): the peptide was dissolved in sucrose phosphate buffer and injected into ligated 3-day-old females during scotophase. Pheromone was extracted 3 hr after injection and quantified by capillary gas chromatography.

[4] = system: H. virescens (tobacco budworm); conditions: (Z)-11-hexadecenal per female ± SE, N = 5; 5 pmoles injected
Experimental: as §1, §2, §3

[5] = system: M. sexta (tobacco hornworm); conditions: (E,Z)-10,12-hexadecadienal per female ± SE, N = 5; 5 pmoles injected
Experimental: as §1, §2, §3

L. dispar (gypsy moth) = conditions: cis-2-decyl-3-(5-methylhexyl) oxirane per female ± SE, N = 5; 5 pmoles injected
Experimental: as §1, §2, §3

[6] = system: O. nubilalis (European corn borer); conditions: (E)-11-tetradecen-1-ol acetate per female ± SE, N = 5; 5 pmoles injected
Experimental: as §1, §2, §3

[7] = system: S. frugiperda (fall armyworm); conditions: per female ± SE, N = 5; 5 pmoles injected
Experimental: as §1, §2, §3

Compound	melanization ([1]; 10 pmole dose, recorded after 48 hr)	melanization ([1]; 10 pmoles/larva, after the moult to the fourth instar)	mortality ([1]; 10 pmoles/larva, associated with melanization)	quantity of pheromone produced relative to that found in normal females ([2]; in two of the six species)	production of their respective pheromones ([2]; injected into ligated females of six other species)	ng/Female H. zea (Z)-11-Hexadecenal (ligated H. zea females; Dose 1.0 pMole)	ng/Female H. zea (Z)-11-Hexadecenal (ligated H. zea females; Dose 10.0 pMole)	ng/Female H. zea (Z)-11-Hexadecenal (ligated H. zea females; Dose 100.0 pMole)	pheromone production at doses greater than 4.0 pmoles (ligated H. zea females; doses greater than 4.0 pmoles)	production of the sex pheromone (ligated H. zea females; injected into ligated H. zea females)	Quantity of the Major Component in the Pheromone of Hex-PBAN injected Female [3]	Quantity of the Major Component in the Pheromone of Hex-PBAN injected Female [4]	Quantity of the Major Component in the Pheromone of Hex-PBAN injected Female [5]	Quantity of the Major Component in the Pheromone of Hex-PBAN injected Female (L. dispar (gypsy moth))	Quantity of the Major Component in the Pheromone of Hex-PBAN injected Female [6]	Quantity of the Major Component in the Pheromone of Hex-PBAN injected Female [7]	ng/Female H. zea (Z)-11-Hexadecenal (ligated H. zea females; Dose 1000.0 pMole)
CC[C@H](C)[C@H](NC(=O)[C@H](CCC(N)=O)NC(=O)[C@H](CCC(=O)O)NC(=O)[C@@H]1CCCN1C(=O)[C@H](CC(=O)O)NC(=O)[C@H](CCC(N)=O)NC(=O)[C@H](CCCNC(=N)N)NC(=O)[C@H](Cc1ccc(O)cc1)NC(=O)[C@H](CCSC)NC(=O)[C@H](CCC(=O)O)NC(=O)[C@H](CCC(N)=O)NC(=O)[C@H](CC(=O)O)NC(=O)[C@H](C)NC(=O)[C@@H]1CCCN1C(=O)[C@@H](NC(=O)[C@H](C)NC(=O)[C@@H]1CCCN1C(=O)[C@H](CCSC)NC(=O)[C@H](CC(=O)O)NC(=O)[C@H](CC(=O)O)NC(=O)[C@H](CO)NC(=O)[C@@H](N)CC(C)C)[C@@H](C)O)C(=O)N[C@@H](CC(=O)O)C(=O)N[C@@H](CO)C(=O)N[C@@H](CCCNC(=N)N)C(=O)N[C@H](C(=O)N[C@@H](CCCCN)C(=O)N[C@@H](Cc1ccc(O)cc1)C(=O)N[C@@H](Cc1ccccc1)C(=O)N[C@@H](CO)C(=O)N1CCC[C@H]1C(=O)N[C@@H](CCCNC(=N)N)C(=O)N[C@@H](CC(C)C)C(N)=O)[C@@H](C)O [Compound 1] (H-LSDDMPATPADQEMYRQDPEQIDSRTKYFSPRL-NH2)	100%	intense melanization	significant mortality	6-7 times	significant amounts	4.6 ng/Female	128.2 ng/Female	179.9 ng/Female	significant decrease	normal production	49.2 ± 16.3 ng	189.2 ± 12.2 ng	65.4 ± 11.9 ng	2.5 ± 0.4 ng	6.7 ± 1.1 ng	42.9 ± 12.2 ng	
CC[C@H](C)[C@H](NC(=O)[C@H](CCC(N)=O)NC(=O)[C@H](CCC(=O)O)NC(=O)[C@@H]1CCCN1C(=O)[C@H](CC(=O)O)NC(=O)[C@H](CCC(N)=O)NC(=O)[C@H](CCCNC(=N)N)NC(=O)[C@H](Cc1ccc(O)cc1)NC(=O)[C@H](CCSC)NC(=O)[C@H](CCC(=O)O)NC(=O)[C@H](CCC(N)=O)NC(=O)[C@H](CC(=O)O)NC(=O)[C@H](C)NC(=O)[C@@H]1CCCN1C(=O)[C@@H](NC(=O)[C@H](C)NC(=O)[C@@H]1CCCN1C(=O)[C@H](CCSC)NC(=O)[C@H](CC(=O)O)NC(=O)[C@H](CC(=O)O)NC(=O)[C@H](CO)NC(=O)[C@@H](N)CC(C)C)[C@@H](C)O)C(=O)N[C@@H](CC(N)=O)C(=O)N[C@@H](CO)C(=O)N[C@@H](CCCNC(=N)N)C(=O)N[C@H](C(=O)N[C@@H](CCCCN)C(=O)N[C@@H](Cc1ccc(O)cc1)C(=O)N[C@@H](Cc1ccccc1)C(=O)N[C@@H](CO)C(=O)N1CCC[C@H]1C(=O)N[C@@H](CCCNC(=N)N)C(=O)N[C@@H](CC(C)C)C(=O)O)[C@@H](C)O [Compound 4] (H-LSDDMPATPADQEMYRQDPEQINSRTKYFSPRL-OH)							0.9 ng/Female	3.2 ng/Female									112.1 ng/Female
CC[C@H](C)[C@H](NC(=O)[C@H](CCC(N)=O)NC(=O)[C@H](CCC(=O)O)NC(=O)[C@@H]1CCCN1C(=O)[C@H](CC(=O)O)NC(=O)[C@H](CCC(N)=O)NC(=O)[C@H](CCCNC(=N)N)NC(=O)[C@H](Cc1ccc(O)cc1)NC(=O)[C@H](CCSC)NC(=O)[C@H](CCC(=O)O)NC(=O)[C@H](CCC(N)=O)NC(=O)[C@H](CC(=O)O)NC(=O)[C@H](C)NC(=O)[C@@H]1CCCN1C(=O)[C@@H](NC(=O)[C@H](C)NC(=O)[C@@H]1CCCN1C(=O)[C@H](CCSC)NC(=O)[C@H](CC(=O)O)NC(=O)[C@H](CC(=O)O)NC(=O)[C@H](CO)NC(=O)[C@@H](N)CC(C)C)[C@@H](C)O)C(=O)N[C@@H](CC(N)=O)C(=O)N[C@@H](CO)C(=O)N[C@@H](CCCNC(=N)N)C(=O)N[C@H](C(=O)N[C@@H](CCCCN)C(=O)N[C@@H](Cc1ccc(O)cc1)C(=O)N[C@@H](Cc1ccccc1)C(=O)N[C@@H](CO)C(=O)N1CCC[C@H]1C(=O)N[C@@H](CCCNC(=N)N)C(=O)N[C@@H](CC(C)C)C(N)=O)[C@@H](C)O [Compound 3] (H-LSDDMPATPADQEMYRQDPEQINSRTKYFSPRL-NH2)						1.7 ng/Female	97.1 ng/Female	145.7 ng/Female									

From patent US5032576A, “Method for controlling female moths using a peptide” (The United States of America as represented by the …, priority 1989, dated 1991)
